One experiment has as its target T1, hH2R-Gsαs fusion protein (Homo sapiens, UniProt P25021).
T1 construct: made in house; host or cells: Sf9 insect cells (recombinant baculovirus), membrane preparation
Nature of the experiment: Radioligand competition binding with [3H]UR-DE257 on Sf9 membranes. The note with it: read-out: pKi (RL comp. binding Sf9 membranes) (converted). How it is done:
All data analysis was performed using Prism 5.0c (GraphPad, San Diego, CA, USA).
(Displacement assays read how much labelled ligand stays bound in the presence of the test substance.)

The target in a further experiment is T2, NLuc-hH2R (Homo sapiens, UniProt P25021).
T2 construct: membrane signal peptide of the murine 5HT3A receptor (N); expressed in transfected cells
In words: NanoBRET saturation binding assay. How it is done:
KG, Wertheim, Germany). The cells were then incubated at 37 °C in a humidified atmosphere (no additional CO2) overnight. […] After 60 min incubation time at 27 °C, 10 μL of the substrate furimazine, which was diluted according to manufacturer's protocol beforehand, were added. After 5 min of equilibration time at 27 °C, the measurement was started. […] After addition of the diluted substrate, the plate was placed inside the reader for 5 min to equilibrate. […] Dissociation experiments were conducted in wells, which have been preincubated with 8 as described above for association experiments. […] All measurements were performed on a TECAN InfiniteLumi plate reader (TECAN, Grödig, Austria) at 27 °C using the Blue2 NB (460 nm ± 35 nm, bandpass) and the Red NB (> 610 nm, longpass) filter combination with an integration time of 100 ms. For the kinetic experiments, integration time was increased to 500 ms for both channels to reduce noise. BRET ratios were calculated by dividing the acceptor emission (red NB) by the donor luminescence (Blue2 NB). For all BRET binding experiments, specific binding was calculated by subtracting non-specific binding from total binding yielding the “corrected BRET ratio”. For saturation binding experiments, total and non-specific binding were fitted simultaneously using the “one-site total and nonspecific binding” fit. Specific binding was fitted accordingly applying the “one-site specific binding” fit. […] The normalized competition binding curves were then fitted with a four-parameter logistic fit yielding pIC50-values. These were transformed into pKi-values using the Cheng-Prusoff equation[38].
For orientation: Bioluminescence resonance energy transfer reports proximity on the nanometre scale.

The target of experiment [1] is T3, hH2R (Homo sapiens, UniProt P25021). In words: β-Arrestin2 recruitment assay (split-luciferase complementation), HEK293T-ARRB2-H2R cells. It is filed as cell-based. Details: expressed in transfected cells; host or cells: HEK293T-ARRB2-H2R cell line. The note with it: read-out: pKb (β-arrestin2 recruitment) (converted). Background: Activated receptors often draw arrestin, which recruitment assays turn into a signal.
Description: One day prior to the experiment, the cells were detached with trypsin/EDTA (0.05%/0.2%) and were centrifuged (500 x g, 5 min). The cells were resuspended in Leibovitz’ L-15 medium + 5% FCS + 10 mM HEPES and the density of the suspension was adjusted to 1.25 x 10^6 cells/mL (agonist mode) or 1.4 x 10^6 cells/mL (antagonist mode). 80 µL (agonist mode) or 70 µL (antagonist mode) of the cell suspension were seeded in white, tissue culture-treated, flat bottom 96-well microtiter plates (Brand, Wertheim, Germany). The cells were incubated at 37 °C overnight in a water saturated atmosphere w/o additional CO2. […] In the meantime, serial dilutions of the tested compounds (10-fold concentrated with respect to the final concentration) were prepared in L-15 + 10 mM HEPES and pre-warmed to 37 °C. After the baseline-read, the dilutions of the test compounds (10 µL/well) were transferred to the 96-well plate. […] For the determination of antagonism, the dilutions of the test compounds (10 µL/well) were transferred to the 96-well plate directly after the addition of D-luciferin (as described above) and the baseline was recorded like in the agonist mode. […] Normalized data were fitted applying a four-parameter logistic fit yielding pIC50 values, which were then transformed into pKb values using the Cheng-Prusoff equation.^8 All data analysis was performed using Prism 5.0c (GraphPad, San Diego, CA, USA).

The target of experiment [2] is T3, hH2R. In words: Flow cytometric saturation binding assay with HEK293T-hH2R-qs5-HA cells. Also noted: expressed in transfected cells; host or cells: HEK293T-hH2R-qs5-HA cells. The note with it: saturation binding at HEK293T-hH2R-qs5-HA cells; mean ± SEM; read-out: pKd (Flow cytometry) (converted). How it is done:
All flow cytometric measurements were performed with FACSCanto™II flow cytometer (Becton Dickinson, Heidelberg, Germany), equipped with an argon laser (488 nm) and a red diode laser (633 nm) (settings: FCS: A, log, 0 V; SSC: A, log, 252 V; ACP: A,H,W, log, 350 V or PerCP-Cy5-5: A,H, log 485 V or PE: A,H,W, log, 420 V) according to general protocols with minor modifications.^4,5 All measurements were performed in duplicate and recorded either in channel PerCP-Cy5 (Py-1, excitation: 488 nm), APC (BODIPY 630/650, excitation: 633 nm) or PE (TAMRA, excitation: 488 nm). Data acquisition was stopped after 10,000 gated events.
Cell culture and preparation of HEK293T-hH2R-qs5-HA cells was performed as described.^4 Briefly, cells were maintained in 25 or 175 cm^2 flasks (Sarstedt, Nümbrecht, Germany) in a humidified atmosphere (95% air, 5% CO2) at 37 °C using Dulbecco`s Modified Eagle`s Medium supplemented with 2 mM L-glutamine (Sigma-Aldrich, Munich, Germany), 10% FCS, 400 µg/mL geneticin (G418), and 100 µg/mL hygromycin B (AG Scientific, San Diego, CA, USA). On the day of the experiment, cells were detached with trypsin/EDTA (0.05%/0.2%) and centrifuged (500 x g, 5 min). The cell pellet was resuspended in Leibovitz’ L-15 medium containing 1% FCS and the cell density was adjusted to 1 x 10^6 cells/mL. The serial dilutions of the tested fluorescent ligands and famotidine (competitor, for non-specific binding) were prepared in DMSO/H2O (1:1, v/v). All incubation steps were performed in 96-well Primaria^TM plates (CORNING, NY, USA). 200 µL of the adjusted cell suspension were either added to 2 µL of DMSO/H2O (1:1, v/v, total binding) or to 2 µl of famotidine (300-fold excess over the fluorescent ligand, non-specific binding). Incubation was started by addition of 2 µL of the respective fluorescent ligand in different concentrations (100-fold concentrated with respect to the final concentration). […] Samples were transferred to 5 mL polystyrol FACS tubes (Sarstedt, Nümbrecht, Germany) and measured immediately. […]

Like-named read-outs stand apart in the source and are kept apart here.

Consider one compound from PMC7414126 (Scientific Reports, 2020).

T3 sequence (P25021 whole entry): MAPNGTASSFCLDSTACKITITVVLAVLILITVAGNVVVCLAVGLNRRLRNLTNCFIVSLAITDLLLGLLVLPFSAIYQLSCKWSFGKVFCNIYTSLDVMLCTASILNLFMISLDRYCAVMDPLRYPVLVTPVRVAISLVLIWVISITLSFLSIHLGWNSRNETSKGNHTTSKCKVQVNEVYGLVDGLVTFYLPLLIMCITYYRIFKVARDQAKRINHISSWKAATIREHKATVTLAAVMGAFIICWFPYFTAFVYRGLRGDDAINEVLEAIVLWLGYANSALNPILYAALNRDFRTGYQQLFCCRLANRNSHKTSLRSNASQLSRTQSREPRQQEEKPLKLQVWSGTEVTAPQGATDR
T2 sequence (P25021 whole entry): as above
T1 sequence (P25021+P63092 fused): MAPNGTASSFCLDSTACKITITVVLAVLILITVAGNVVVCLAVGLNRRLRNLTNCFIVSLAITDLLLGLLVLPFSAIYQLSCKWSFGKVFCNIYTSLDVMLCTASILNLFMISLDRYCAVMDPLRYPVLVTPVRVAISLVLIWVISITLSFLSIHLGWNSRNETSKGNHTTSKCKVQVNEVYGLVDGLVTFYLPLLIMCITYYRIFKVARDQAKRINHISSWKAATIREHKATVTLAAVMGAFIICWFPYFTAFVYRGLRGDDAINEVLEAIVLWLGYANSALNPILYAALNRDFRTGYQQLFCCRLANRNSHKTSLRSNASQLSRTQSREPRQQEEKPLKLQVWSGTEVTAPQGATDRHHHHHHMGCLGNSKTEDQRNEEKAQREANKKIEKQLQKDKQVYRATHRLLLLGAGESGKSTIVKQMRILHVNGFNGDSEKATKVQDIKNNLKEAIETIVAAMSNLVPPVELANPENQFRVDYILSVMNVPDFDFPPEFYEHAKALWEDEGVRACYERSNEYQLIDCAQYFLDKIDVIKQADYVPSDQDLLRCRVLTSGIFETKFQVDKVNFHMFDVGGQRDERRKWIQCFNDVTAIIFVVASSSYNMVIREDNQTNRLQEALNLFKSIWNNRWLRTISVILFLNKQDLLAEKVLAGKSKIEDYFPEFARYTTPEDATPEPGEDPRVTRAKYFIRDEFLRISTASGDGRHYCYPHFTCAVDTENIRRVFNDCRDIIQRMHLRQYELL

Take `Cc1cc(/C=C/c2cc3c4c(c2)CCCN4CCC3)cc(C)[n+]1CCCCNc1c(NCCCOc2cccc(CN3CCCCC3)c2)c(=O)c1=O` [Compound 8, (E)-1-(4-((3,4-Dioxo-2-((3-(3-(piperidin-1-ylmethyl)phenoxy)propyl)amino)cyclobut-1-en-1-yl)amino)butyl)-2,6-dimethyl-4-(2-(2,3,6,7-tetrahydro-1H,5H-pyrido[3,2,1-ij]quinolin-9-yl)vinyl)pyridin-1-ium]: the Ki at hH2R-Gsαs fusion protein was 24 nM. Further, the Kd is 29.4 nM on NLuc-hH2R (representative NanoBRET saturation isotherm, result from single experiment, HEK293T NLuc-hH2R, read-out: Kd* (single experiment)); 44.7 nM at NLuc-hH2R (saturation binding, live HEK293T cells stably expressing NLuc-hH2R, mean ± SEM, read-out: pKd (NanoBRET) (converted)); 74.1 nM at hH2R [2]. The Kb at hH2R [1] was 16.6 nM.
